Values of other authors as cited in patent US20130079315A1, “Ophthalmic Gel Compositions” (priority 2011, published 2013).

Question: With `CCOC(=O)O[C@]1(C(=O)OCCl)CC[C@H]2[C@@H]3CCC4=CC(=O)C=C[C@]4(C)[C@H]3[C@@H](O)C[C@@]21C` [LE, (11β,17α),-7-((Ethoxycarbonyl)oxy)-11-hydroxy-3-oxoandrosta-1,4-diene-17-carboxylic acid chloromethyl ester] as the compound, how does the solubility in water read?
Answer: Its solubility in water is “about 0.008 mg/mL”.
